This is an account of results in patent publication US8652786B2, “Method for predicting responsiveness to drugs” (The General Hospital Corporation, priority 2005, dated 2014).

The subject of experiment [1] is GTL-16 gastric carcinoma cells. Particulars: GTL-16 cells; cited from earlier work.
Experiment [2] relates to MET. Particulars: Morotti et al. 2002; cited from earlier work.
Experiment [3] concerns MET. Particulars: Morotti et al. 2002; cited from earlier work. The source holds these as a separate data set.
Experiment [4] deals with ERK1/2, AKT, STAT3, or FAK. Kind of experiment: Immunoblot of baseline phosphorylation of downstream effectors in Amp− cells. The format is cell-based, human. Particulars: 3 h. On the procedure: (§1) FIG. 3: Constitutive activation of MET and activation of downstream signaling pathways in Amp^+ cells. (FIG. 3A) MET is constitutively activated in the Amp^+ cells. […] (FIG. 3B) Effect of HGF on MET activation in Amp^+ and Amp^− cells (representative immunoblots). Cells were serum-starved for 24 h and treated with 40 ng/ml HGF for 10 minutes. Phosphorylation of MET (Y1234/1235) is unaltered in Amp^+ cells treated with HGF, but it is induced by HGF in Amp^− cells (total MET control).
(§2) Cells are costained with DAPI to show nuclei.
(§3) Cells were either directly lysated in 2× sample buffer or in RIPA buffer (150 mM NaCl, 50 mM Tris pH 8.0, 1% NP40, 0.5% DOC, 0.1% SDS, 1 mM EDTA, 10 mM NaF, 1 mM Na-orthovanadate, 1× protease inhibitor cocktail (Roche; Indianapolis, Ind.)). Cell lysates were sonicated for 10 sec and cleared by centrifugation at 14,000 rpm for 10 min at 4° C. Cleared lysates were boiled in sample buffer and loaded onto 10% SDS-PAGE gel. For immunoblotting analysis, proteins were transferred onto Immobilon PVDF membrane (Millipore; Bedford, Mass.) and visualized with Western Lightning Plus chemiluminescence kit (Perkin Elmer; Boston, Mass.).

The subject of experiment [5] is Amp+ cells. Description: MTT viability, gastric cancer cell lines with MET amplification. The format is cell-based, human. The settings on record: 5 of 5 Amp+ cell lines, 96 h.
Experiment [6] has as its system Amp+ cells. Kind of experiment: Apoptosis induction (cleaved caspase-3 staining, PARP cleavage), Amp+ cells. The format is cell-based, human. On the procedure:
as §2
Cells were plated on coverslips in 12-well dishes and grown to approximately 75% confluency in 10% serum. […] After 72 h the cells were fixed with 4% paraformaldehyde for 20 minutes. Permeabilization with 1% NP40 for 5 minutes was followed by blocking with 3% BSA for 30 minutes. The coverslips were then incubated overnight at 4° C. with cleaved caspase-3 antibody at 1:200 dilution. The next day, the coverslips were washed 3 times with PBS and incubated with a secondary antibody (goat anti-rabbit FITC-conjugated) for 1 h at 1:250 dilution. Following 5 washes with PBS, coverslips were mounted in Vectashield mounting medium containing DAPI (Vector Laboratories; Burlingame, Calif.).
Apoptosis Induction Assay. […] After 72 h, cells were fixed with 4% paraformaldehyde for 20 min, permeabilized by using 1% Nonidet P-40 for 5 min, and blocked with 3% BSA for 30 min. The coverslips were then incubated overnight at 4° C. with cleaved caspase-3 antibody at 1:200 dilution. The next day, the coverslips were washed three times with PBS and incubated with a secondary antibody (goat anti-rabbit FITC-conjugated) for 1 h at 1:250 dilution. After five washes with PBS, coverslips were mounted in Vectashield mounting medium containing DAPI (Vector Laboratories), and staining was visualized by fluorescent microscopy.

Experiment [7] relates to Amp− cells. Description: MTT viability, gastric cancer cell lines without MET amplification. The format is cell-based, human. Particulars: 12 of 12 Amp− cell lines, 96 h.
The test system of experiment [8] is MET. Description: Immunoblot of constitutive MET autophosphorylation in Amp+ cells. The settings on record: 50 nM, 3 h. The format is cell-based, human.
In experiment [9] the test system is Amp− cells. Kind of experiment: Growth curve (SYTO60), Amp− cells. It is filed as cell-based, human. The settings on record: 1 μM, up to 6 days.
Experiment [10] concerns ERK1/2, AKT, STAT3, and FAK. Kind of experiment: Immunoblot of baseline phosphorylation of downstream effectors in Amp+ cells. Particulars: 50 nM, 3 h. It is filed as cell-based, human. The procedure: as §1, §2, §3
The subject of experiment [11] is gastric cancer cell line MKN45. Description: Drug-sensitivity screen of 40 cancer cell lines, MKN45. The format is cell-based, human. Particulars: 3 days, DNA staining; MET-amplified line. The procedure: (§4) Cells were cultured and analyzed in triplicate within microtiter plates. Cell numbers were quantitated by DNA staining, 3 days after addition of various concentrations of drugs and expressed as a fraction of matched untreated cultures. For each drug concentration, cell lines with relative drug sensitivity (<50% of untreated control growth) are shown in darkest staining, intermediate sensitivity (50-75%) in […], and drug insensitivity (>75%) in intermediate shading.
(§5) Cellular Proliferation and Viability Assays. […] For quantitation of cellular proliferation, cells were fixed at appropriate time points in 4% paraformaldehyde, and all plates were stained simultaneously by using the fluorescent nucleic acid stain SYTO60 (Molecular Probes) at 1:8,000 dilution in PBS. Quantitation was done by measuring the […] at 700 nm by using the Odyssey Imaging System (LI-COR, Lincoln, Nebr.). The relative cell number was obtained by normalizing treated samples to matched untreated specimens. For quantitation of cell viability, cultures were stained after 4 days by using the MTT assay. Briefly, 10 μl of 5 mg/ml MTT (Thiazolyl blue) solution was added to each well and incubated for 2 h at 37° C. […] The results were quantitated spectrophotometrically by using a test wavelength of 570 nm and a reference wavelength of 630 nm.

For the next experiment, the system named is NCI-H1650. Kind of experiment: Drug-sensitivity screen of 40 cancer cell lines, NCI-H1650. It is filed as cell-based, human. The settings on record: gefitinib 100 nM to 10 μM, 3 days, DNA staining; del E746-A750 EGFR. The procedure: as §4, §5
Experiment [12] deals with NCI-H1975 NSCLC cell line. Description: Drug-sensitivity screen of 40 cancer cell lines, NCI-H1975. It is filed as cell-based, human. The settings on record: gefitinib; L858R and T790M EGFR. The procedure:
as §4, §5

“Also recorded” adds a separate entry of the source.

Consider `COC(=O)[C@@]1(O)C[C@H]2O[C@]1(C)n1c3ccccc3c3c4c(c5c6ccccc6n2c5c31)C(=O)NC4` [K252a], for which, in [1], the Met-driven proliferation entry is reported as “reduces Met-driven proliferation”. Besides, the “inhibition of Met mediated signals” value in the experiment on MET [2] was “inhibit Met mediated signals at nanomolar concentrations”. Moreover, in the experiment on MET [3], the Met autophosphorylation entry is listed as “inhibits Met autophosphorylation”.
For the compound `Cc1[nH]c(/C=C2\C(=O)Nc3ccc(S(=O)(=O)Cc4c(Cl)cccc4Cl)cc32)c(C)c1C(=O)N1CCC[C@@H]1CN1CCCC1` [PHA-665752, (3Z)-5-[(2,6-dichlorobenzyl)sulfonyl]-3-[(3,5-dimethyl-4-{[(2R)-2-(pyrrolidin-1-ylmethyl)pyrrolidin-1-yl]carbonyl}-1H-pyrrol-2-yl)methylene]-1,3-dihydro-2H-indol-2-one], the “baseline phosphorylation of ERK1/2, AKT, STAT3, FAK” value in experiment [4] is on record as “no effect”. Also, the “effect on number of viable cells” value in the experiment on Amp+ cells [5] is reported as “dramatic decrease in the number of viable cells; also recorded: dramatic reduction in cell numbers”; in the experiment with Amp− cells [7], “resistant; also recorded: no effect”. The induction of apoptosis result with Amp+ cells [6] (Amp+ cells, cleaved caspase-3 (1 μM, 72 h), PARP cleavage (500 nM, 72 h)) is “apoptosis”. Moreover, in the experiment with Amp+ cells [6] (MKN45 cells), the “course of cell death” value was “more delayed but prolonged cell death”. In addition, the PARP-cleavage signal entry with Amp+ cells [6] (SNU-5 cells, 72 h) is reported as “prominent PARP-cleavage signal”. Besides, the “constitutive MET autophosphorylation” value with MET [8] is reported as “effectively suppressed”. For the same compound, the “effect on proliferation rate” value with Amp− cells [9] was “unaffected”. For the same compound, the “baseline phosphorylation of downstream effectors ERK1/2, AKT, STAT3, FAK” value in [10] is reported as “effectively abrogated”. In addition, the “Extreme sensitivity (concentration)” value in experiment [11] is recorded as 100 nM.
With `COc1cc2ncnc(Nc3ccc(F)c(Cl)c3)c2cc1OCCCN1CCOCC1` [gefitinib], in the experiment with NCI-H1650, the “Extreme sensitivity (concentration)” value was determined as 100 nM. The “sensitivity in the assay” value in experiment [12] was “relatively resistant”.
